{"source": "patent US20240238231A1", "about": "“EDTA AND EGTA FOR USE IN PRESERVING THE INTEGRITY OF THERAPEUTIC COMPOUNDS” (Axcess (UK) Ltd, priority 2021, published 2024)", "key": {"[1]": {"target": "T1, Trypsin from porcine pancreas (Sus scrofa, UniProt P00761)", "T1 construct": "from tissue; host or cells: porcine pancreas", "T1 sequence (P00761 9-231)": "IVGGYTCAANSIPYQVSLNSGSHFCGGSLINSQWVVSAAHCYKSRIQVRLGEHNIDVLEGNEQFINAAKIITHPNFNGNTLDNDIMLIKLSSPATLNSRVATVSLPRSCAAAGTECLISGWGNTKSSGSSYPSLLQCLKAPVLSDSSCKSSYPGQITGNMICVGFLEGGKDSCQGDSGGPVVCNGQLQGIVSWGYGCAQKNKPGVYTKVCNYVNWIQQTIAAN", "assay": "Inhibition of trypsin activity, fluorescence microplate assay with Z-L-arginine-4-methyl-7-coumarinylamide substrate", "assay_type": "biochemical", "conditions": "for effect on the activity of trypsin: pH 7, 30 minutes", "method": "A dilute solution of phosphate-buffered saline (PBS) was prepared at a concentration of 0.3 mM phosphate (pH7), and used to dissolve calcium chloride dihydrate or magnesium chloride at a concentration of 0.3 mg/ml. Trypsin from porcine pancreas was dissolved in the Ca/PBS buffer, in either the presence or absence of calcium, at a concentration of trypsin at 0.02 mg/ml. 5 ml aliquots of disodium EDTA (dihydrate) solution were prepared in PBS with and without calcium or magnesium at doubling dilutions from 8 mg/ml downwards, and the pH of each solution adjusted to 7. Trypsin substrate (namely Z-L-arginine-4-methyl-7-coumarinylamide HCl) was dissolved in DMSO at a concentration of 0.125 mg/ml, then diluted 100-fold in Ca/PBS buffer. EDTA solutions were dispensed into the wells of a black microplate (60 ul per well) then 10 ul of trypsin solution was added, followed by 10 ul of substrate. The reaction was allowed to proceed for 30 minutes, and the extent of reaction determined in a fluorescence microplate reader by measuring the fluorescence of the reaction product (coumarin) at excitation wavelength 365 nm, emission 440 nm.\nA dilute solution of phosphate-buffered saline (PBS) was prepared at a concentration of 0.3 mM phosphate (pH7), and used to dissolve calcium chloride dihydrate at a concentration of 0.3 mg/ml. Trypsin from porcine pancreas was dissolved in the Ca/PBS buffer at a concentration of 0.02 mg/ml trypsin. 5 ml aliquots of disodium EGTA (dihydrate) solution were prepared in PBS at doubling dilutions from 8 mg/ml downwards, and the pH of each solution adjusted to 7. Trypsin substrate (namely Z-L-arginine-4-methyl-7-coumarinylamide HCl) was dissolved in DMSO at a concentration of 0.125 mg/ml, then diluted 100-fold in Ca/PBS buffer. EGTA solutions were dispensed into the wells of a black microplate (60 ul per well) then 10 ul of trypsin solution was added, followed by 10 ul of substrate. The reaction was allowed to proceed for 30 minutes, and the extent of reaction determined in a fluorescence microplate reader by measuring the fluorescence of the reaction product (coumarin) at excitation wavelength 365 nm, emission 440 nm.\nA dilute solution of phosphate-buffered saline (PBS) was prepared at a concentration of 0.3 mM phosphate (pH7), and used to dissolve calcium chloride dihydrate at a concentration of 0.3 mg/ml. Trypsin from porcine pancreas was dissolved in the buffer, in either the presence or absence of calcium, at a concentration of 0.02 mg/ml. 5 ml aliquots of disodium EGTA (dihydrate) solution and phenanthroline (Low concentrations of phenanthroline only were employed, because of its limited solubility in aqueous phase) were prepared in PBS with and without calcium at doubling dilutions from 8 mg/ml downwards, and the pH of each solution adjusted to 7. Trypsin substrate (namely Z-L-arginine-4-methyl-7-coumarinylamide HCl) was dissolved in DMSO at a concentration of 0.125 mg/ml, then diluted 100-fold in Ca/PBS buffer. EGTA solutions and phenanthroline were dispensed into the wells of a black microplate (60 ul per well) then 10 ul of trypsin solution was added, followed by 10 ul of substrate. The reaction was allowed to proceed for 30 minutes, and the extent of reaction determined in a fluorescence microplate reader by measuring the fluorescence of the reaction product (coumarin) at excitation wavelength 365 nm, emission 440 nm."}, "chymotrypsin": {"test_system": "chymotrypsin", "conditions": "in the presence of calcium ions only, FIG. 4", "method": "Experiment 1 was repeated, except that chymotrypsin was employed, instead of trypsin, and the experiment was conducted in the presence of calcium ions only."}, "[2]": {"conditions": "in combination with / in the presence of calcium (0.3 mg/ml), FIG. 1 and FIG. 3"}}}
{"molecule": "[Zn+2]", "note": "[zinc]", "values": [{"measurement": "effect of the metal ion on inhibition of trypsin by EDTA or EGTA", "setting": "[1]; metal ion combined with EDTA or EGTA, calcium and magnesium show inhibition", "value": "has no such effect"}]}
{"molecule": "O=C(O)CC(O)(CC(=O)O)C(=O)O", "note": "[citrate, citric acid, reference compound]", "values": [{"measurement": "effect on the activity of trypsin", "setting": "[1]; [2]", "value": "no effect"}]}
{"molecule": "c1cnc2c(c1)ccc1cccnc12", "note": "[phenanthroline, ortho-phenanthroline, reference compound]", "values": [{"measurement": "effect on the activity of trypsin", "setting": "[1]; [2]", "value": "no inhibitory effect"}]}
{"molecule": "O=C(O)CN(CCOCCOCCN(CC(=O)O)CC(=O)O)CC(=O)O", "note": "[EGTA]", "values": [{"measurement": "effect on the activity of trypsin", "setting": "[1]; EGTA doubling dilutions from 8 mg/ml, presence and absence of calcium ions, FIG. 2", "value": "inhibitory effect"}]}
{"molecule": "O=C(O)CN(CCN(CC(=O)O)CC(=O)O)CC(=O)O", "note": "[EDTA]", "values": [{"measurement": "effect on the activity of trypsin", "setting": "[1]; EDTA alone (no calcium or magnesium), doubling dilutions from 8 mg/ml, FIG. 1", "value": "significant inhibitory effect"}, {"measurement": "effect on the activity of trypsin", "setting": "[1]; [2]", "value": "significant inhibitory effect"}, {"measurement": "effect on the activity of trypsin", "setting": "[1]; in combination with magnesium (0.5 mg/ml), FIG. 1", "value": "significant inhibitory effect"}, {"measurement": "effect on the protease activity of chymotrypsin", "setting": "chymotrypsin", "value": "inhibitory effect"}]}
